Assay results published in US9187524B2, “Broad spectrum antibiotic arylomycin analogs” (The Scripps Research Institute, priority 2010, dated 2015).
≈ marks a conversion by molar mass, not a printed value. Like-named read-outs stand apart in the source and are kept apart here.

Legend:
S. pyogenes = assay: microbe, parasite or virus in culture; format: cell-based, Streptococcus pyogenes
L. lactis = assay: microbe, parasite or virus in culture; format: cell-based, Lactococcus lactis; conditions: Lactococcus lactis, Table 4
S. agalactiae = assay: microbe, parasite or virus in culture; format: cell-based, Streptococcus agalactiae
[1] = system: lepB(P29S) S. aureus 8325; assay: microbe, parasite or virus in culture; format: cell-based, Staphylococcus aureus; conditions: for MIC: Staphylococcus aureus, read-out: MIC, S. aureus P29S
R. opacus = assay: microbe, parasite or virus in culture; format: cell-based; conditions: Rhodococcus opacus; Table 4; read-out: MIC, R. opacus
[2] = system: lepB(P84L) E. coli MG1655; assay: microbe, parasite or virus in culture; format: cell-based, Escherichia coli; conditions: for MIC: Escherichia coli, MG1655, read-out: MIC, E. coli P84L
C. efficiens = assay: microbe, parasite or virus in culture; format: cell-based; conditions: Corynebacterium efficiens, Table 4; read-out: MIC, C. efficiens
R. equi = assay: microbe, parasite or virus in culture; format: cell-based; conditions: Rhodococcus (subgen. Prescottella) equi; Table 4
C. glutamicum = assay: microbe, parasite or virus in culture; format: cell-based, Corynebacterium glutamicum; conditions: Corynebacterium glutamicum; Table 4; read-out: MIC, C. glutamicum
S. pneumoniae = assay: microbe, parasite or virus in culture; format: cell-based, Streptococcus pneumoniae
wild type E. coli MG1655 = assay: microbe, parasite or virus in culture; format: cell-based, Escherichia coli; conditions: for MIC: Escherichia coli, MG1655, read-out: MIC, E. coli
B. brevis = assay: microbe, parasite or virus in culture; format: cell-based, Brevibacillus brevis; conditions: for MIC: Brevibacillus brevis, Table 4, read-out: MIC, B. brevis
[3] = system: lepB(P84L) P. aeruginosa PAO1; assay: microbe, parasite or virus in culture; format: cell-based, Pseudomonas aeruginosa; conditions: for MIC: Pseudomonas aeruginosa, PAO1, read-out: MIC, P. aeruginosa P84L
[4] = system: wild type S. epidermidis RP62A; assay: microbe, parasite or virus in culture; format: cell-based, Staphylococcus epidermidis; conditions: for MIC: Staphylococcus epidermidis, read-out: MIC, S. epidermidis
[5] = system: wild type P. aeruginosa PAO1; assay: microbe, parasite or virus in culture; format: cell-based, Pseudomonas aeruginosa
wild type S. aureus 8325 = assay: microbe, parasite or virus in culture; format: cell-based, Staphylococcus aureus
[6] = system: spsB(S29P) S. epidermidis RP62A; assay: microbe, parasite or virus in culture; format: cell-based, Staphylococcus epidermidis
[7] = system: S. epidermidis ATCC 35984; assay: MIC; format: cell-based; conditions: Table 1

Row | Compound | MIC, Resistant Pa [5] | MIC, Resistant Sa (wild type S. aureus 8325) | MIC, Sensitive Sa [1] | MIC, Sensitive Ec [2] | MIC, Resistant Ec (wild type E. coli MG1655) | MIC, Resistant Se [6] | MIC, Sensitive Pa [3] | MIC, Sensitive Se [4] | fold loss of activity against sensitized S. aureus relative to arylomycin C16 [1] | fold loss of activity against sensitized P. aeruginosa relative to arylomycin C16 [3] | other results
1 | CCCCCCCCCCCCCCCC(=O)N(C)[C@H](CO)C(=O)N[C@H](C)C(=O)NCC(=O)N(C)[C@@H]1C(=O)NC(C)C(=O)N[C@H](C(=O)O)Cc2cc(c(O)c([N+](=O)[O-])c2)-c2cc1ccc2O (stereo partly shown) [Arylomycin B-C16] |  |  |  |  |  |  |  |  |  |  | MIC (S. pyogenes; Streptococcus pyogenes, Table 4, read-out: MIC, S. pyogenes): 4 µg/mL (≈ 4.32 µM); MIC, S. pyogenes (S. pyogenes; Table 14): 4 µg/mL (≈ 4.32 µM); MIC (L. lactis): 32 µg/mL (≈ 34.6 µM); fold more activity against Streptococcus agalactiae than arylomycin C16 (S. agalactiae): greater than 16 fold; MIC (S. agalactiae; Streptococcus agalactiae, Table 4, read-out: MIC, S. agalactiae): 8 µg/mL (≈ 8.64 µM); MIC, S. agalactiae (S. agalactiae; Table 14): 8 µg/mL (≈ 8.64 µM); MIC [1]: 8 µg/mL (≈ 8.64 µM); MIC (R. opacus): 4 µg/mL (≈ 4.32 µM); MIC [2]: 2 µg/mL (≈ 2.16 µM); MIC (C. efficiens): 16 µg/mL (≈ 17.3 µM); MIC (R. equi): 32 µg/mL (≈ 34.6 µM); MIC (C. glutamicum): 2 µg/mL (≈ 2.16 µM); MIC (S. pneumoniae; Streptococcus pneumoniae, Table 4, read-out: MIC, S. pneumoniae): 16 µg/mL (≈ 17.3 µM); MIC, S. pneumoniae (S. pneumoniae; Table 14): 16 µg/mL (≈ 17.3 µM); MIC (wild type E. coli MG1655): > 64 µg/mL; MIC (B. brevis): > 64 µg/mL; activity against B. brevis (B. brevis; MHBII broth and nutrient broth): no activity; MIC [3]: 4 µg/mL (≈ 4.32 µM); MIC [4]: 0.13 µg/mL (≈ 0.14 µM)
2 | CCCCCCCCCCCCCCCC(=O)N[C@H](CO)C(=O)N[C@H](C)C(=O)NCC(=O)N(C)[C@@H]1C(=O)N[C@@H](C)C(=O)N[C@H](C(=O)O)Cc2ccc(O)c(c2)-c2cc1ccc2O [Compound 17] | >64 µg/mL | >64 µg/mL | 16 µg/mL (≈ 18.5 µM) | 4 µg/mL (≈ 4.61 µM) | >64 µg/mL | 32 µg/mL (≈ 36.9 µM) | >64 µg/mL | 1 µg/mL (≈ 1.15 µM) |  |  | 
3 | CCCCCCCCCCCCCCCC(=O)N(C)[C@H](CO)C(=O)N(C)[C@H](C)C(=O)NCC(=O)N(C)[C@@H]1C(=O)N[C@@H](C)C(=O)N[C@H](C(=O)O)Cc2ccc(O)c(c2)-c2cc1ccc2O [Compound 18] | >64 µg/mL | >64 µg/mL | >64 µg/mL | >64 µg/mL | >64 µg/mL | >64 µg/mL | >64 µg/mL | >64 µg/mL |  |  | 
4 | CCCCCCCCCCCCCCCC(=O)N1CC(O)CC1C(=O)NC(C)C(=O)NCC(=O)N(C)C1C(=O)NC(C)C(=O)NC(C(=O)O)Cc2ccc(O)c(c2)-c2cc1ccc2O (stereo not shown) [Compound 19] | >64 µg/mL | >64 µg/mL | 4 µg/mL (≈ 4.48 µM) | >64 µg/mL | >64 µg/mL | 8 µg/mL (≈ 8.96 µM) | >64 µg/mL | 4 µg/mL (≈ 4.48 µM) |  |  | 
5 | CCCCCCCCCCCCCCCC(=O)N(C)C(CO)CCC(=O)NC(C)C(=O)NCC(=O)N(C)C1C(=O)NC(C)C(=O)NC(C(=O)O)Cc2ccc(O)c(c2)-c2cc1ccc2O (stereo not shown) [Compound 24] | >64 µg/mL | 16 µg/mL (≈ 17.6 µM) | 4 µg/mL (≈ 4.4 µM) | >64 µg/mL | >64 µg/mL | 16 µg/mL (≈ 17.6 µM) | >64 µg/mL | 8 µg/mL (≈ 8.8 µM) |  |  | 
6 | CCCCCCCCCCCCCCCC(=O)N(C)[C@H](CO)C(=O)N[C@H](C)C(=O)NCC(=O)N(C)[C@@H]1C(=O)NCC(=O)N[C@H](C(=O)O)Cc2ccc(O)c(c2)-c2cc1ccc2O [Compound 26] |  |  |  |  |  |  |  |  | > 16 fold | > 16 fold | fold loss of activity against sensitized E. coli relative to arylomycin C16 [2]: 32 fold; fold loss of activity against S. epidermidis relative to arylomycin C16 [4]: 32 fold
7 | CCCCCCCCCCCCCCCC(=O)N(C)C(CO)C(=O)NC(C)C(=O)NCC(=O)N(C)C1C(=O)NC(CCCC)C(=O)NC(C(=O)O)Cc2ccc(O)c(c2)-c2cc1ccc2O (stereo not shown) [Compound 29] |  |  |  |  |  |  |  |  | 32 fold |  | 
8 | CCCCCCCCCCCCCCCC(=O)N(C)C(CO)C(=O)NC(C)C(=O)NCC(=O)N(C)C1C(=O)NC(CCCCC)C(=O)NC(C(=O)O)Cc2ccc(O)c(c2)-c2cc1ccc2O (stereo not shown) [Compound 30] |  |  |  |  |  |  |  |  | 32 fold |  | 
9 | CCCCCCCCCCCCCCCC(=O)N(C)C(CO)C(=O)NC(C)C(=O)NCC(=O)N(C)C1C(=O)NC(CC(F)(F)F)C(=O)NC(C(=O)O)Cc2ccc(O)c(c2)-c2cc1ccc2O (stereo not shown) [Compound 33] |  |  |  |  |  |  |  |  | at least 16 fold | at least 16 fold | fold loss of activity against sensitized E. coli relative to arylomycin C16 [2]: 8 fold; fold loss of activity against S. epidermidis relative to arylomycin C16 [4]: 32 fold
10 | CCCCCCCCCCCCCCCC(=O)N(C)C(CO)C(=O)NC(C)C(=O)NCC(=O)N(C)C1C(=O)NC(C(C)C)C(=O)NC(C(=O)O)Cc2ccc(O)c(c2)-c2cc1ccc2O (stereo not shown) [Compound 34] |  |  |  |  |  |  |  |  |  | 4 fold | 
11 | CCCCCCCCCCCCCCCC(=O)N(C)C(CO)C(=O)NC(C)C(=O)NCC(=O)N(C)C1C(=O)NC(CC(C)C)C(=O)NC(C(=O)O)Cc2ccc(O)c(c2)-c2cc1ccc2O (stereo not shown) [Compound 35] |  |  |  |  |  |  |  |  |  | > 16 fold | 
12 | CCCCCCCCCCCCCCCC(=O)N(C)[C@H](CO)C(=O)N[C@H](C)C(=O)NCC(=O)N(C)[C@@H]1C(=O)N[C@@H](C)C(=O)N[C@H](C(=O)O)Cc2cc(N)c(O)c(c2)-c2cc1ccc2O [Compound 36] |  |  |  |  |  |  |  |  | 32 fold | 8 fold | MIC [1]: 64 µg/mL (≈ 71.4 µM); fold loss of activity against sensitized E. coli relative to arylomycin C16 [2]: 8 fold; MIC [2]: 16 µg/mL (≈ 17.9 µM); MIC (wild type E. coli MG1655): > 64 µg/mL; MIC (B. brevis): > 64 µg/mL; MIC [3]: 32 µg/mL (≈ 35.7 µM); MIC [4]: 8 µg/mL (≈ 8.93 µM); fold loss of activity against S. epidermidis relative to arylomycin C16 ([4]; sensitive (wild type) strain): 32 fold
13 | Arylomycin A2 [reference compound] |  |  |  |  |  |  |  |  |  |  | MIC, S. aureus 8325 (wild type S. aureus 8325; Table 1): >128 µM; MIC, S. epidermidis ATCC 35984 [7]: 1 µM; MIC, E. coli MG1655 (wild type E. coli MG1655; Table 1): >128 µM
